Measurements reported in US9568483B2, “Molecular subtyping, prognosis and treatment of prostate cancer” (CORNELL UNIVERSITY, priority 2011, dated 2017).
“Also recorded” adds a separate entry of the source.

Legend:
[1] = mouse, in vivo, ip, 30 mg/kg
Experimental: (§1) Drug Treatment. PHA-739358 was obtained from Nerviano Medical Sciences (Milan, Italy) in powder form (MW 414.36). Prostate cell lines for this study were obtained from the American Type Culture Collection (Manassas, Va.). RWPE (20×10^3 per well), NCI-H660 (20×10^3), DU145 (5×10^3 per well), VCaP (20×10^3 per well) and LNCaP (1.5×10^4 per well) cells were seeded on 96-well-tissue culture plates. At 24 hours, cell lines were treated with vehicle (0.5% DMSO) or escalating doses of PHA-739358 (5 nM, 50 nM, 100 nM, 500 nM, 1 uM, 5 uM). At 48 hr, 72 h, 96 h, and 120 h, viability was assessed by performing WST-1 assay (Roche, Indianapolis, Ind.) reading absorbance at 450 nm according to the manufacturer's instructions. Xenografts were prepared by injection of 1 million NCI-H660 cells, VCaP cells, or LNCaP cells into NU/J mice (Jackson Laboratories, Bar Harbor, Me.). LTL-362 xenografts were established at BC Cancer Center Living Tumor Laboratory as previously described (TUNG et al., Prostate (2010)). […] Mice were sacrificed on day 17, and tumors were evaluated for weight, gross pathology, histology, and IHC. […]
(§2) Xenografts. […] Mice were sacrificed on day 17, and tumors were evaluated for weight, gross pathology, histology, and IHC. […] Analysis was performed using LivingImage software (Xenogen) by measurement of the average photon flux (measured in photons/s/cm2/steradian) within a region of interest.

NCI-H660 cells [2] = assay: WST-1 viability assay, NCI-H660; assay type: cell-based, human; settings: compared to two PCA cell lines (DU145, VCaP) and benign RWPE-1 cells; 72 hours; FIG. 4B
Experimental: as §1, with “(2010)). 3×3×2 […] tissue fragments were subcutaneously engrafted into fourteen 6-8 week old NOD/SCID mice. All xenograft tumors were allowed to grow to an average tumor […] of 100 mm^3.” for “(2010)).”

LNCaP xenografts = assay: LNCaP xenograft study; assay type: in vivo, NU/J mice
Experimental: as §1, with “Me.).” for “Me.). LTL-362 xenografts were established at BC Cancer Center Living Tumor Laboratory as previously described (TUNG et al., Prostate (2010)).”
(§3) Immunohistochemistry (IHC). […] IHC was quantified on scale 0-3 and overexpression was defined as any staining intensity seen of target cells above background (similar methodology as was used in PARK et al., Neoplasia, 12:590-8 (2010)).
(§4) Xenografts. […] Mice were sacrificed on day 17, and tumors were evaluated for weight, gross pathology, histology, and IHC. […]

VCaP xenografts = assay: VCaP xenograft study; assay type: in vivo, NU/J mice; settings: 30 mg/kg intraperitoneal, days 1-5
Experimental: as §1, §2

NCI-H660 xenografts = assay: NCI-H660 xenograft study; assay type: in vivo, NU/J mice
Experimental: Drug Treatment. PHA-739358 was obtained from Nerviano Medical Sciences (Milan, Italy) in powder form (MW 414.36). Prostate cell lines for this study were obtained from the American Type Culture Collection (Manassas, Va.). RWPE (20×10^3 per well), NCI-H660 (20×10^3), DU145 (5×10^3 per well), VCaP (20×10^3 per well) and LNCaP (1.5×10^4 per well) cells were seeded on 96-well-tissue culture plates. At 24 hours, cell lines were treated with vehicle (0.5% DMSO) or escalating doses of PHA-739358 (5 nM, 50 nM, 100 nM, 500 nM, 1 uM, 5 uM). At 48 hr, 72 h, 96 h, and 120 h, viability was assessed by performing WST-1 assay (Roche, Indianapolis, Ind.) reading absorbance at 450 nm according to the manufacturer's instructions. Xenografts were prepared by injection of 1 million NCI-H660 cells, VCaP cells, or LNCaP cells into NU/J mice (Jackson Laboratories, Bar Harbor, Me.). LTL-362 xenografts were established at BC Cancer Center Living Tumor Laboratory as previously described (TUNG et al., Prostate (2010)). 3×3×2 […] tissue fragments were subcutaneously engrafted into fourteen 6-8 week old NOD/SCID mice. All xenograft tumors were allowed to grow to an average tumor […] of 100 mm^3. 20 LNCaP, 20 VCaP, 40 NCI-H660, 14 LTL-362 mice were randomized to treatment with PHA-739358 at 30 mg/kg intraperitoneal dosing on days 1-5 or vehicle. Body weight, tumor volume based on caliper measurements ([…]) and luciferase imaging were performed every 3 or 4 days after treatment. Mice were sacrificed on day 17, and tumors were evaluated for weight, gross pathology, histology, and IHC. Three tumors were processed during treatment (on day 4) to evaluate for phosphorylated histone 3 expression by IHC.
as §3, §4

LNCaP-MYCN cells = assay: Cell cycle FACS analysis, LNCaP-MYCN; assay type: cell-based; settings: 48 hrs treatment
Experimental: (§5) Cell Cycle Analysis. Cells were treated with PHA-739358 for 48 hrs. After treatment, cells were washed with cold PBS and fixed in 70% EtOH at −20° C. overnight. Cells were washed and suspended in 500 μl PBS containing 0.1% Triton X-100, 20 μg/ml Propidium Iodide (PI) and 200 μg/ml RNase A, incubated for 30 min at room temperature and subjected to FACS analysis using a LSR II Analyzer (BD Biosciences).

LNCaP-n-Myc cells = assay: WST-1 viability assay, LNCaP cells stably transfected with MYCN; assay type: cell-based; settings: compared to control LNCaP cells (LNCaP-EV); 72 hours; FIG. 4A
Experimental: as §1, with “(2010)). 3×3×2 […] tissue fragments were subcutaneously engrafted into fourteen 6-8 week old NOD/SCID mice. All xenograft tumors were allowed to grow to an average tumor […] of 100 mm^3.” for “(2010)).”

NCI-H660 cells [3] = assay: Cell cycle FACS analysis, NCI-H660; assay type: cell-based, human; settings: 48 hrs treatment
Experimental: as §5

LTL-352 xenograft = LTL-352 xenograft study; assay type: in vivo, NOD/SCID mice; settings: LTL-352 xenografts; 30 mg/kg IP BID, 5 days; P<0.001
Experimental: as §1, §2

LNCaP cells = assay: Cell cycle FACS analysis, LNCaP; assay type: cell-based; settings: 48 hrs treatment
Experimental: as §5

CO[C@@H](C(=O)N1Cc2n[nH]c(NC(=O)c3ccc(N4CCN(C)CC4)cc3)c2C1)c1ccccc1 [PHA-739358]
toxicity as determined by body weight [1]: without significant toxicity | sensitivity (viability) (NCI-H660 cells [2]): enhanced sensitivity | effect on tumor size (LNCaP xenografts; LNCaP xenografts, 30 mg/kg IP BID, 5 days): no effect | Phosphorylated histone 3 expression (IHC) (LNCaP xenografts; treated LNCaP xenografts, day 4 of treatment): not in the LNCaP xenografts | effect on tumor size (VCaP xenografts): cytostatic effect | average tumor shrinkage (NCI-H660 xenografts; NCI-H660 xenografts, 30 mg/kg IP BID, 5 days, P<0.001): 50-87% | SYP (synaptophysin) expression (IHC) (NCI-H660 xenografts; treated NCI-H660 xenografts, FIG. 4F): negative; also recorded: completely suppressed | Phosphorylated histone 3 expression (IHC) (NCI-H660 xenografts; treated NCI-H660 xenografts, day 4 of treatment): significantly inhibited | Polyploidy (LNCaP-MYCN cells): induced | G2/M arrest (LNCaP-MYCN cells; FIG. 5): dose dependent G2/M arrest | in vitro sensitivity (viability) (LNCaP-n-Myc cells): enhanced in vitro sensitivity | Polyploidy (NCI-H660 cells [3]): induced | G2/M arrest (NCI-H660 cells [3]; FIG. 5): no significant G2/M arrest | average tumor shrinkage (LTL-352 xenograft): 50-87% | Polyploidy (LNCaP cells): induced | G2/M arrest (LNCaP cells; FIG. 5): dose dependent G2/M arrest
